The values below are quoted from earlier work in EP0303681B1 (priority 1987, dated 1988).

For `Sc1ncnc2nc[nH]c12` [6 MP, 6-mercaptopurine], where the note is “alkaline solutions”, the “solubility in alkaline solutions” value is listed as “soluble”. Also, the “solubility in hot ethanol” value (hot ethanol) is “soluble”. Further, under “water”, the solubility in water result is recorded as “insoluble”.
